From patent US4605744A, “Imidazole derivatives” (Hoffmann-La Roche Inc., priority 1985, dated 1986)
Structures can show the parent of a compound that is named as a salt. Where two headings read alike, the source gives them in different places.

Assays:
Assay in all cases: In vitro antibacterial activity (MIC)
Type in all cases: cell-based
P. aeruginosa 8780 = settings: Pseudomonas aeruginosa; P. aeruginosa 8780; read-out: MIC
How it was run: (§1)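 Mueller-Hinton broth carries the compound at 128–0.008 μg/ml; diluted drug may be used fresh or stored frozen at -10° to -70° C before use. Wells are seeded with a 10^-2 dilution of overnight culture and incubated overnight at 37° C.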

S. pneumoniae 6301 = settings: Streptococcus pneumoniae, 6301, S. pneumoniae 6301; read-out: MIC
How it was run: as §1

E. coli 48 = test system: E. coli 48
How it was run: as §1

P. aeruginosa 6148B = settings: Pseudomonas aeruginosa, read-out: MIC
How it was run: as §1

P. mirabilis 2 = settings: Proteus mirabilis, 2, P. mirabilis 2; read-out: MIC
How it was run: as §1

E. cloacae 214 = settings: Enterobacter cloacae, 214, E. cloacae 214; read-out: MIC
How it was run: as §1

S. pneumoniae 6302 = settings: Streptococcus pneumoniae, 6302, S. pneumoniae 6302; read-out: MIC
How it was run: as §1

E. cloacae 24 = settings: Enterobacter cloacae, 24, E. cloacae 24; read-out: MIC
How it was run: as §1

P. aeruginosa 503-56 = test system: P. aeruginosa 503-56
How it was run: as §1

E. cloacae 6951 = settings: Enterobacter cloacae, 6951, E. cloacae 6951; read-out: MIC
How it was run: as §1

C. freundii CDC6 = settings: Citrobacter freundii
How it was run: as §1

S. marcescens S4 = settings: Serratia marcescens, S4, S. marcescens S4; read-out: MIC
How it was run: as §1

K. pneumoniae 5096 = settings: Klebsiella pneumoniae; K. pneumoniae 5096; read-out: MIC
How it was run: as §1

C. freundii 8ASM = settings: Citrobacter freundii, 8ASM, C. freundii 8ASM; read-out: MIC
How it was run: as §1

P. aeruginosa POW 151 = settings: Pseudomonas aeruginosa, POW151
How it was run: as §1

E. coli R-563 = settings: Escherichia coli
How it was run: as §1

P. mirabilis 90 = settings: Proteus mirabilis, 90, P. mirabilis 90; read-out: MIC
How it was run: as §1

K. pneumoniae A = settings: Klebsiella pneumoniae, K. pneumoniae A; read-out: MIC
How it was run: as §1

E. cloacae 9570A = settings: Enterobacter cloacae, read-out: MIC
How it was run: as §1

C. diversus CDC 1663-72 = settings: Citrobacter koseri, CDC166372
How it was run: as §1

E. coli 4 = test system: E. coli 4
How it was run: as §1

P. aeruginosa 503-820 = settings: Pseudomonas aeruginosa, 503820; P. aeruginosa 503-820; read-out: MIC
How it was run: as §1

E. cloacae 5699 = settings: Enterobacter cloacae, 5699, E. cloacae 5699; read-out: MIC
How it was run: as §1

E. coli 5152 = settings: Escherichia coli, 5152, E. coli 5152; read-out: MIC
How it was run: as §1

E. cloacae P99 = settings: Enterobacter cloacae, P99, E. cloacae P99
How it was run: as §1

S. aureus 1059B = settings: Staphylococcus aureus, read-out: MIC
How it was run: as §1

S. aureus Smith = settings: Staphylococcus aureus, S. aureus Smith; read-out: MIC
How it was run: as §1

S. marcescens S1 = settings: Serratia marcescens, S1, S. marcescens S1; read-out: MIC
How it was run: as §1

P. aeruginosa 5712 = settings: Pseudomonas aeruginosa; P. aeruginosa 5712; read-out: MIC
How it was run: as §1

E. aerogenes 503-478 = settings: Klebsiella aerogenes, 503478, E. aerogenes 503-478; read-out: MIC
How it was run: as §1

P. vulgaris 101 = settings: Proteus vulgaris, 101, P. vulgaris 101; read-out: MIC
How it was run: as §1

P. mirabilis 620A = settings: Proteus mirabilis, 620A, P. mirabilis 620A; read-out: MIC
How it was run: as §1

E. aerogenes 8 = settings: Klebsiella aerogenes; E. aerogenes 8; read-out: MIC
How it was run: as §1

P. vulgaris 100 = settings: Proteus vulgaris; P. vulgaris 100; read-out: MIC
How it was run: as §1

P. vulgaris ATCC 6380 = settings: Proteus vulgaris, ATCC6380, P. vulgaris ATCC 6380; read-out: MIC
How it was run: as §1

S. pneumoniae SC = settings: Streptococcus pneumoniae, read-out: MIC
How it was run: as §1

S. schottmuelleri = settings: read-out: MIC
How it was run: as §1

S. marcescens S5 = settings: Serratia marcescens, S5, S. marcescens S5; read-out: MIC
How it was run: as §1

E. coli 503-455 = settings: Escherichia coli, 503455, E. coli 503-455; read-out: MIC
How it was run: as §1

S. marcescens S2 = settings: Serratia marcescens; S. marcescens S2; read-out: MIC
How it was run: as §1

S. pyogenes 503-782 = settings: Streptococcus pyogenes, 503782; S. pyogenes 503-782; read-out: MIC
How it was run: as §1

K. pneumoniae 503-994 = settings: Klebsiella pneumoniae, 503994, K. pneumoniae 503-994; read-out: MIC
How it was run: as §1

P. mirabilis 503-1136 = settings: Proteus mirabilis, 5031136, P. mirabilis 503-1136; read-out: MIC
How it was run: as §1

K. pneumoniae 4964 = settings: Klebsiella pneumoniae, 4964, K. pneumoniae 4964; read-out: MIC
How it was run: as §1

[1] = Pseudomonas aeruginosa, 50356, P. aeruginosa 503-56, read-out: MIC

CC1(C)S[C@@H]2[C@H](N=CN3CCC(CCCn4ccnc4)CC3)C(=O)N2[C@H]1C(=O)O [C, [2S-(2alpha,5alpha,6beta)]-6-[[4-[3-(1H-imidazol-1-yl)propyl]-1-piperidinyl]methylene]amino]-3,3-dimethyl-7-oxo-4-thia-1-azabicyclo[3.2.0]heptane-2-carboxylic acid 1.2 mole hydrochloride monohydrate]
MIC (P. aeruginosa 8780): > 128 µg/mL | MIC (S. pneumoniae 6301): 128 µg/mL | MIC (E. coli 48; Escherichia coli, 48, E. coli 48, read-out: MIC): 2 µg/mL | MIC (P. aeruginosa 6148B): > 128 µg/mL | MIC (P. mirabilis 2): 16 µg/mL | MIC (E. cloacae 214): 16 µg/mL | MIC (S. pneumoniae 6302): 128 µg/mL | MIC (E. cloacae 24): 32 µg/mL | MIC (P. aeruginosa 503-56; [1]): > 128 µg/mL | MIC (E. cloacae 6951): > 128 µg/mL | MIC (C. freundii CDC6; CDC6, C. freundii CDC6, read-out: MIC): 16 µg/mL | MIC (S. marcescens S4): 32 µg/mL | MIC (K. pneumoniae 5096): > 128 µg/mL | MIC (C. freundii 8ASM): 4 µg/mL | MIC (P. aeruginosa POW 151): > 128 µg/mL | MIC (E. coli R-563; R563, E. coli R-563, read-out: MIC): 4 µg/mL | MIC (P. mirabilis 90): 32 µg/mL | MIC (K. pneumoniae A): 4 µg/mL | MIC (E. cloacae 9570A): 16 µg/mL | MIC (C. diversus CDC 1663-72; C. diversus CDC 1663-72, read-out: MIC): 4 µg/mL | MIC (E. coli 4; Escherichia coli, 4, E. coli 4, read-out: MIC): 8 µg/mL | MIC (P. aeruginosa 503-820): > 128 µg/mL | MIC (E. cloacae 5699): 16 µg/mL | MIC (E. coli 5152): > 128 µg/mL | MIC (E. cloacae P99): 8 µg/mL | MIC (S. aureus 1059B): > 128 µg/mL | MIC (S. aureus Smith): > 128 µg/mL | MIC (S. marcescens S1): 128 µg/mL | MIC (P. aeruginosa 5712): > 128 µg/mL | MIC (E. aerogenes 503-478): 128 µg/mL | MIC (P. vulgaris 101): 128 µg/mL | MIC (P. mirabilis 620A): > 128 µg/mL | MIC (E. aerogenes 8): > 128 µg/mL | MIC (P. vulgaris 100): > 128 µg/mL | MIC (P. vulgaris ATCC 6380): 4 µg/mL | MIC (S. pneumoniae SC): 64 µg/mL | MIC (S. schottmuelleri): 4 µg/mL | MIC (S. marcescens S5): 64 µg/mL | MIC (E. coli 503-455): 128 µg/mL | MIC (S. marcescens S2): 16 µg/mL | MIC (S. pyogenes 503-782): > 128 µg/mL | MIC (K. pneumoniae 503-994): 32 µg/mL | MIC (P. mirabilis 503-1136): 128 µg/mL | MIC (K. pneumoniae 4964): > 128 µg/mL

CC1(C)S[C@@H]2[C@H](N=CN3CCC(c4ncc[nH]4)CC3)C(=O)N2[C@H]1C(=O)O [O, [2S-(2alpha,5alpha,6beta)]-6-[[[4-(1H-imidazol-2-yl-1-piperidinyl]methylene]amino]-3,3-dimethyl-7-oxo-4-thia-1-azabicyclo[3.2.0]heptane-2-carboxylic acid hydrochloride trihydrate]
MIC (P. aeruginosa 8780): > 128 µg/mL | MIC (S. pneumoniae 6301): 1 µg/mL | MIC (E. coli 48; Escherichia coli, 48): 0.125 µg/mL | MIC (P. aeruginosa 6148B): > 128 µg/mL | MIC (P. mirabilis 2): 1 µg/mL | MIC (E. cloacae 214): 0.5 µg/mL | MIC (S. pneumoniae 6302): 1 µg/mL | MIC (E. cloacae 24): 1 µg/mL | MIC (P. aeruginosa 503-56; P. aeruginosa 503-56, hydrochloride trihydrate): > 128 µg/mL | MIC (P. aeruginosa 503-56; [1]): 128 µg/mL | MIC (E. cloacae 6951): 16 µg/mL | MIC (C. freundii CDC6; CDC6): 0.125 µg/mL | MIC (S. marcescens S4): 2 µg/mL | MIC (K. pneumoniae 5096): 64 µg/mL | MIC (C. freundii 8ASM): 0.062 µg/mL | MIC (P. aeruginosa POW 151): > 128 µg/mL | MIC (E. coli R-563; R563): 0.125 µg/mL | MIC (P. mirabilis 90): 0.5 µg/mL | MIC (K. pneumoniae A): 0.062 µg/mL | MIC (E. cloacae 9570A): 0.5 µg/mL | MIC (C. diversus CDC 1663-72): 0.125 µg/mL | MIC (E. coli 4; Escherichia coli, 4): 0.125 µg/mL | MIC (P. aeruginosa 503-820): > 128 µg/mL | MIC (E. cloacae 5699): 0.5 µg/mL | MIC (E. coli 5152): 16 µg/mL | MIC (E. cloacae P99): 0.062 µg/mL | MIC (S. aureus 1059B): > 128 µg/mL | MIC (S. marcescens S1): 0.5 µg/mL | MIC (P. aeruginosa 5712): > 128 µg/mL | MIC (E. aerogenes 503-478): > 128 µg/mL | MIC (P. vulgaris 101): 32 µg/mL | MIC (E. aerogenes 8): 32 µg/mL | MIC (P. vulgaris 100): 8 µg/mL | MIC (P. vulgaris ATCC 6380): 0.25 µg/mL | MIC (S. pneumoniae SC): 1 µg/mL | MIC (S. schottmuelleri): 0.125 µg/mL | MIC (E. coli 503-455): 1 µg/mL | MIC (S. marcescens S2): 0.5 µg/mL | MIC (S. pyogenes 503-782): 32 µg/mL | MIC (K. pneumoniae 503-994): 0.5 µg/mL | MIC (K. pneumoniae 4964): 64 µg/mL
